Source: patent US20090155387A1, “STABLE PHARMACEUTICAL COMPOSITION COMPRISING BETA-LACTAM ANTIBIOTIC AND ION-CHELATING AGENT” (priority 2006, published 2009)
Entries after “also recorded” stand apart in the source; their conditions may differ. Each block holds one compound with its values, some of them ahead of it.

Experiments:
[1] = HIAC light obscuration test (USP 788), particle content of solution preparations; assay type: physicochemical; settings: HIAC test results, composition in the form of a liquid solution
Method: Light obscuration testing was performed for solution preparations prepared with some of the compositions described in the examples according to the method described in the United States Pharmacopeia (USP 788) using HIAC-3000 light obscuration detector. Particle content is denoted by the number of particles per milliliter of solution. The value is an average of two measurements. Samples were tested at 1 hour and at 20 hours.

[2] = Amounts of β-lactam antibiotic, β-lactamase inhibitor and aminoglycoside antibiotic in solution over time (reverse-phase LC/HPLC); assay type: physicochemical
Method: The amounts of β-lactam antibiotics and β-lactamase inhibitor were determined using C18 reverse-phase LC and UV-VIS detector (Tianjin […] Co., Ltd., analysis method No. HM-K-03). The content of aminoglycoside antibiotics was measured using reverse-phase HPLC and evaporation-light-scattering detector (ELSD detector) (Tianjin […] Co., Ltd., analysis method No. HM-K-08). The amount of antibiotic component at each time point was expressed as a percentage with respect to the amount at the initial time. The relative amount of each antibiotic component in the composition at each time point was expressed as peak area ratio with respect to the corresponding peak area of an external standard.

Structure (SMILES): O=C(O)CN(CCN(CC(=O)O)CC(=O)O)CC(=O)O [EDTA, ethylenediamine tetraacetic acid]
effect on aggregate particle formation in solution preparations [1]: can significantly reduce aggregate particle formation; also recorded: effective in inhibiting formation of aggregate particles

amount (percentage of initial amount) ([2]; in Example 6 solution, pH 6.5, room temperature, 0 h): 108.9% | amount (percentage of initial amount) ([2]; in Example 6 solution, pH 6.5, room temperature, 1 h): 100.2% | amount (percentage of initial amount) ([2]; in Example 6 solution, pH 6.5, room temperature, 2 h): 100.5% | amount (percentage of initial amount) ([2]; in Example 6 solution, pH 6.5, room temperature, 4 h): 100.4% | amount (percentage of initial amount) ([2]; in Example 6 solution, pH 6.5, room temperature, 6 h): 100.4% | amount (percentage of initial amount) ([2]; in Example 6 solution, pH 6.5, room temperature, 8 h): 97.50% | amount (percentage of initial amount) ([2]; in Example 13 solution (Example 12 solution + etimicin sulfate), 0 h): 100% | amount (percentage of initial amount) ([2]; in Example 13 solution (Example 12 solution + etimicin sulfate), 1 h): 98.8% | amount (percentage of initial amount) ([2]; in Example 13 solution (Example 12 solution + etimicin sulfate), 2 h): 97.5% | amount (percentage of initial amount) ([2]; in Example 13 solution (Example 12 solution + etimicin sulfate), 4 h): 98.4% | amount (percentage of initial amount) ([2]; in Example 13 solution (Example 12 solution + etimicin sulfate), 6 h): 95.6% | amount (percentage of initial amount) ([2]; in Example 13 solution (Example 12 solution + etimicin sulfate), 8 h): 92.8% | amount (percentage of initial amount) ([2]; in Example 17 solution, pH 6.5, room temperature, 0 h): 100.1% | amount (percentage of initial amount) ([2]; in Example 17 solution, pH 6.5, room temperature, 1 h): 100.4% | amount (percentage of initial amount) ([2]; in Example 17 solution, pH 6.5, room temperature, 2 h): 99.31% | amount (percentage of initial amount) ([2]; in Example 17 solution, pH 6.5, room temperature, 4 h): 99.56% | amount (percentage of initial amount) ([2]; in Example 17 solution, pH 6.5, room temperature, 6 h): 99.61% | amount (percentage of initial amount) ([2]; in Example 17 solution, pH 6.5, room temperature, 8 h): 99.25% | amount (percentage of initial amount) ([2]; in Example 18 solution (2.5% fructose), pH 6.5, room temperature, 0 h): 100.1% | amount (percentage of initial amount) ([2]; in Example 18 solution (2.5% fructose), pH 6.5, room temperature, 1 h): 100.6% | amount (percentage of initial amount) ([2]; in Example 18 solution (2.5% fructose), pH 6.5, room temperature, 2 h): 99.79% | amount (percentage of initial amount) ([2]; in Example 23 solution (2.5% fructose), pH 6.75, room temperature, 0 h): 104.5% | amount (percentage of initial amount) ([2]; in Example 23 solution (2.5% fructose), pH 6.75, room temperature, 1 h): 99.13% | amount (percentage of initial amount) ([2]; in Example 23 solution (2.5% fructose), pH 6.75, room temperature, 2 h): 103.3% | amount (percentage of initial amount) ([2]; in Example 23 solution (2.5% fructose), pH 6.75, room temperature, 4 h): 98.75% | amount (percentage of initial amount) ([2]; in Example 23 solution (2.5% fructose), pH 6.75, room temperature, 6 h): 101.6% | amount (percentage of initial amount) ([2]; in Example 23 solution (2.5% fructose), pH 6.75, room temperature, 8 h): 96.42% | amount (percentage of initial amount) ([2]; in Example 26 solution (2.5% fructose), pH 6.75, room temperature, 0 h): 94.69% | amount (percentage of initial amount) ([2]; in Example 26 solution (2.5% fructose), pH 6.75, room temperature, 1 h): 102.9% | amount (percentage of initial amount) ([2]; in Example 26 solution (2.5% fructose), pH 6.75, room temperature, 2 h): 109.3% | amount (percentage of initial amount) ([2]; in Example 26 solution (2.5% fructose), pH 6.75, room temperature, 4 h): 108.8% | amount (percentage of initial amount) ([2]; in Example 26 solution (2.5% fructose), pH 6.75, room temperature, 6 h): 109.6% | amount (percentage of initial amount) ([2]; in Example 26 solution (2.5% fructose), pH 6.75, room temperature, 8 h): 105.2%
Structure (SMILES): CCN[C@@H]1C[C@H](N)[C@@H](O[C@H]2O[C@H](CN)CC[C@H]2N)[C@H](O)[C@H]1O[C@H]1OC[C@](C)(O)[C@H](NC)[C@H]1O [Etimicin]
